# Where a name gives a salt, the structure may show the parent alone.
# Experiments:
# [1] = solubility of belumosudil mesylate; type: physicochemical
# Method: The tablet film consists of polyvinyl alcohol, polyethylene glycol, talc, titanium dioxide and yellow iron oxide. Each 200 mg tablet is a pale yellow film-coated oblong tablet debossed with “KDM” on one side and “200” on the other side. Tablets are stored at room temperature, 20° C. to 25° C. (68° F. to 77° F.); excursions permitted from 15° C. and 30° C. (59° F. to 86° F.).
# cGVHD = conditions: in vivo; cited from earlier work
Compound,solubility in DMF [1],solubility in DMSO [1],solubility in methanol [1],solubility in water [1],discontinuation rate because of TEAEs (cGVHD)
"CC(C)NC(=O)COc1cccc(-c2nc(Nc3ccc4[nH]ncc4c3)c3ccccc3n2)c1 [Belumosudil mesylate, 2-{3-[4-(1H-indazol-5-ylamino)-2-quinazolinyl]phenoxy}-N-(propan-2-yl) acetamide methanesulfonate (1:1)]",slightly soluble,soluble,slightly soluble,practically insoluble,
C=CC(=O)N1CCC[C@@H](n2nc(-c3ccc(Oc4ccccc4)cc3)c3c(N)ncnc32)C1 [ibrutinib],,,,,43%
